Assay results taken from patent publication US9999220B2, “Method for repelling rodents” (Arkion Life Sciences, LLC, priority 2014, dated 2018).

What was measured:
[1] = system: deer mice; test: Concentration-response repellency experiment, treated whole oats, deer mice; format: in vivo, Peromyscus maniculatus; conditions: deer mice offered oats treated with 0.25-2% anthraquinone (target concentrations), 1-day test
Experimental: During a 3-day pre-test, we offered one bowl (untreated whole oats) in individual cages at 08:00 h, daily. […] We randomly assigned repellent treatments among groups. During the 1-day test, we offered one bowl (repellent-treated whole oats) at 08:00 h. Consumption of treated oats was measured (±0.1 g) at 08:00 h on the day subsequent to the test.

[2] = system: Sprague-Dawley rats; test: 13-week single-choice feeding study in Sprague-Dawley rats (rat repellency example); format: in vivo; conditions: for Body Weight Day 1: Day 1, mean ± SD; for Body Weight Week 3: Week 3, mean ± SD; for Body Weight Week 7: Week 7, mean ± SD; for Body Weight Week 13: Week 13, mean ± SD; for Total Weight Gain % difference from control / Total Weight Gain: over 13 weeks; for Total Weight Gain: mean ± SD
Experimental: Anthraquinone is not a classic toxicant but a feeding study on Sprague-Dawley rats was done to determine effects of long term feeding where there was a single choice offered to rats over a 13 week period.
Anthraquinones was administered to four groups of 10 male and 10 female Sprague-Dawley rats/group at concentrations of 0, 500, 2000, or 7500 ppm (0, 40, 125, or 495 mg/kg/day in males; 0, 44, 150, or 661 mg/kg/day in females) for 4 consecutive weeks. Beginning with Week 5, the 500 ppm diet was reduced to 200 ppm resulting in lowering the doses to 11 and 16 mg/kg/day for males and females, respectively, through the end of the 13-week experimental period.
Significant reduction in feeding with a single choice indicates a non-lethal repellency.

[3] = system: black-tailed prairie dogs; test: Concentration-response repellency experiment, treated whole corn, black-tailed prairie dogs; format: in vivo, Cynomys ludovicianus; conditions: black-tailed prairie dogs offered corn seeds treated with 0.5-4% anthraquinone (target concentrations), 1-day test
Text: (§1) These values can also be used to form ranges, such as, for example, from about 15% to about 85% repellency, with preferred ranges for particular rodent families ranging from about 20-50%; 25-40%; 40-55%; and 55-85%. The percent repellency is based on the percentage of the treated item which is not consumed by the animal.
(§2) We conducted a concentration-response experiment with an anthraquinone-based repellent (Avipel®, a.i. 50% 9,10-anthraquinone; Arkion Life Sciences, New Castle, Del.) to determine anthraquinone repellency for black-tailed prairie dogs (Cynomys ludovicianus, N=44 males and females; Werner et al. 2011). During a 3-day pre-test, we offered one bowl (untreated whole corn) in individual cages at 08:00 h, daily. […] We randomly assigned repellent treatments among groups. During the 1-day test, we offered one bowl (repellent-treated whole corn) at 08:00 h. Consumption of treated corn seeds was measured (±0.1 g) at 08:00 h on the day subsequent to the test.
We observed 24-37% repellency (FIG. 1) during our concentration-response experiment with black-tailed prairie dogs offered corn seeds treated with 0.5-4% anthraquinone (target concentrations; Werner et al. 2011).

[4] = system: Richardson's ground squirrels; test: Concentration-response repellency experiment, treated whole oats, Richardson's ground squirrels; format: in vivo, Urocitellus richardsonii; conditions: Richardson's ground squirrels offered oats treated with 0.5-2% anthraquinone (target concentrations), 1-day test
Text: as §1
as §2, with “a.i.50%” for “a.i. 50%”, “Richardson's ground squirrels (Urocitellus richardsonii, N=28” for “black-tailed prairie dogs (Cynomys ludovicianus, N=44”, “females).” for “females; Werner et al. 2011).”, “oats)” for “corn)”, “oats” for “corn seeds”
We observed 40-56% repellency (FIG. 3) during our concentration-response experiment with Richardson's ground squirrels offered oats treated with 0.5-2% anthraquinone (target concentrations).

[5] = system: California voles; test: Concentration-response repellency experiment, treated whole oats, California voles; format: in vivo, Microtus californicus; conditions: California voles offered oats treated with 0.5-2% anthraquinone (target concentrations), 1-day test
Text: as §1
as §2, with “California (Microtus californicus, N=30” for “black-tailed prairie dogs (Cynomys ludovicianus, N=44”, “females).” for “females; Werner et al. 2011).”, “oats)” for “corn)”, “oats” for “corn seeds”
We observed 58-84% repellency (FIG. 2) during our concentration-response experiment with California voles offered oats treated with 0.5-2% anthraquinone (target concentrations).

[6] = females, 500 ppm diet (200 ppm from Week 5)
[7] = males, 500 ppm diet (200 ppm from Week 5)

For O=C1c2ccccc2C(=O)c2ccccc21 [anthraquinone, 9,10-anthraquinone], the repellency [1] was 19-52%, the “repellency observed (lack of weight gain from inhibited feeding)” value ([2]; 500 ppm in diet, single choice, 13 weeks) was “some repellency was observed” and the “Body Weight Day 1” value [2, 6] was 185 ± 12.2 G. The “Body Weight Week 3” value [2, 6] was 223 ± 12.4 G, the “Body Weight Week 7” value [2, 6] was 254 ± 14.2 G and the “Body Weight Week 13” value [2, 6] was 274 ± 15.0 G. For the same molecule, the “Total Weight Gain % difference from control” value (shortened to “Total Weight Gain % difference”) [2, 6] was −27%, the “Total Weight Gain” value [2, 6] was 89 ± 10.1 Grams and the “Body Weight Day 1” value ([2]; females, 2000 ppm diet) was 188 ± 14.6 G. The “Body Weight Week 3” value ([2]; females, 2000 ppm diet) was 212 ± 14.2 G, the “Body Weight Week 7” value ([2]; females, 2000 ppm diet) was 238 ± 11.7 G and the “Body Weight Week 13” value ([2]; females, 2000 ppm diet) was 247 ± 16.3 G. The “Total Weight Gain % difference” value ([2]; females, 2000 ppm diet) was −51%, the “Total Weight Gain” value ([2]; females, 2000 ppm diet) was 59 ± 9.2 Grams and the “Body Weight Day 1” value ([2]; females, 7500 ppm diet) was 189 ± 11.8 G. For the same molecule, the “Body Weight Week 3” value ([2]; females, 7500 ppm diet) was 204 ± 22.0 G, the “Body Weight Week 7” value ([2]; females, 7500 ppm diet) was 226 ± 26.3 G and the “Body Weight Week 13” value ([2]; females, 7500 ppm diet) was 217 ± 27.7 G. The “Total Weight Gain % difference” value ([2]; females, 7500 ppm diet) was −76%, the “Total Weight Gain” value ([2]; females, 7500 ppm diet) was 29 ± 28.2 Grams and the “Body Weight Day 1” value [2, 7] was 252 ± 14.5 G. For the same molecule, the “Body Weight Week 3” value [2, 7] was 379 ± 26.4 G, the “Body Weight Week 7” value [2, 7] was 471 ± 39.4 G and the “Body Weight Week 13” value [2, 7] was 528 ± 47.4 G. The “Total Weight Gain % difference” value [2, 7] was −11%, the “Total Weight Gain” value [2, 7] was 275 ± 38.7 Grams and the “Body Weight Day 1” value ([2]; males, 2000 ppm diet) was 250 ± 13.5 G. The “Body Weight Week 3” value ([2]; males, 2000 ppm diet) was 359 ± 23.7 G, the “Body Weight Week 7” value ([2]; males, 2000 ppm diet) was 443 ± 36.9 G and the “Body Weight Week 13” value ([2]; males, 2000 ppm diet) was 498 ± 43.0 G. The “Total Weight Gain % difference” value ([2]; males, 2000 ppm diet) was −20%, the “Total Weight Gain” value ([2]; males, 2000 ppm diet) was 247 ± 37.1 Grams and the “Body Weight Day 1” value ([2]; males, 7500 ppm diet) was 250 ± 10.1 G. For the same molecule, the “Body Weight Week 3” value ([2]; males, 7500 ppm diet) was 342 ± 20.2 G, the “Body Weight Week 7” value ([2]; males, 7500 ppm diet) was 425 ± 28.7 G and the “Body Weight Week 13” value ([2]; males, 7500 ppm diet) was 470 ± 37.9 G. For the same molecule, the “Total Weight Gain % difference” value ([2]; males, 7500 ppm diet) was −28%, the “Total Weight Gain” value ([2]; males, 7500 ppm diet) was 221 ± 34.0 Grams and the “dietary concentration at which effective repellency began” value ([2]; single choice diet, 13 weeks) was “approximately 2000 ppm”. For the same molecule, the repellency [3] was 24-37%, the repellency [4] was 40-56% and the repellency [5] was 58-84%.
